Source: PubChem BioAssay (NCI)
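Step 1: Grow cells in 96-well plates. Step 2: Expose to compound for 48 hours at 5 concentrations. Step 3: Interpolate endpoints linearly; if unreached, use highest concentration. At the TGI there is no net growth.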

Tests used:
Experiment in all cases: NCI-60 cell line screen, 48 h
ACHN renal = test system: ACHN renal
HCC-2998 colon = test system: HCC-2998 colon
HCT-116 colon = test system: HCT-116 colon
HCT-15 colon = test system: HCT-15 colon
M14 melanoma = test system: M14 melanoma
MALME-3M melanoma = test system: MALME-3M melanoma
NCI-H460 lung = test system: NCI-H460 lung
SF-295 CNS = test system: SF-295 CNS
SNB-19 CNS = test system: SNB-19 CNS
SR leukemia = test system: SR leukemia
TK-10 renal = test system: TK-10 renal
UO-31 renal = test system: UO-31 renal
HS 578T breast = test system: HS 578T breast
NCI/ADR-RES ovarian = test system: NCI/ADR-RES ovarian

Compound	TGI (ACHN renal)	TGI (HCC-2998 colon)	TGI (HCT-116 colon)	TGI (HCT-15 colon)	TGI (M14 melanoma)	TGI (MALME-3M melanoma)	TGI (NCI-H460 lung)	TGI (SF-295 CNS)	TGI (SNB-19 CNS)	TGI (SR leukemia)	TGI (TK-10 renal)	TGI (UO-31 renal)	TGI (HS 578T breast)	TGI (NCI/ADR-RES ovarian)
CC(=O)OC1CC2C(C)(C)OC(=O)CC(OC(C)=O)[C@]2(C)C2CCC3(C)C(=CCC3c3ccoc3)[C@]12C (stereo partly drawn)	> 100 µM	52.4 µM	58.6 µM	> 100 µM	46.5 µM	92.6 µM	> 100 µM	98.3 µM	> 100 µM	50.8 µM	> 100 µM	> 100 µM		
O=C(/C=C/c1ccccc1Br)c1ccccc1	3.73 µM	7.68 µM	3.85 µM	6.36 µM	15.1 µM		16.3 µM	23.4 µM	23.2 µM		9.83 µM	11.3 µM	11.3 µM	17.7 µM
Brc1ccc(N=Nc2ccc3ccccc3n2)cc1	31.2 µM		30.1 µM	> 100 µM	> 100 µM	> 100 µM	26.4 µM	> 100 µM	37.1 µM		56.6 µM	27.5 µM	56.6 µM	> 100 µM
Cc1ccc(S(=O)(=O)OI(O)CC(F)(F)F)cc1	> 100 µM	> 100 µM	> 100 µM	> 100 µM	> 100 µM		> 100 µM	> 100 µM		> 100 µM	> 100 µM	> 100 µM		> 100 µM
COC(=O)C1=C(C(=O)OC)C(OO)(c2ccccc2)OC1=O (stereo not drawn)	> 100 µM	> 100 µM	> 100 µM	> 100 µM	> 100 µM	> 100 µM	> 100 µM	> 100 µM	> 100 µM	> 100 µM	> 100 µM	> 100 µM		> 100 µM
O=C(NN1C(=O)C(Cl)C1c1cccc(Cl)c1)c1ccccc1O (stereo not drawn)	> 100 µM		> 100 µM	> 100 µM	> 100 µM	> 100 µM	> 100 µM	> 100 µM	> 100 µM		> 100 µM	> 100 µM		
CN(C(=O)c1cc2c(s1)sc1c(=O)n(C)c3ccccc3c12)c1ccccc1	66.6 µM	> 100 µM	> 100 µM	> 100 µM	> 100 µM	> 100 µM	83.3 µM	> 100 µM	> 100 µM	> 100 µM	> 100 µM	24.5 µM		77.1 µM
COC(=O)C1Cc2c([nH]c3ccccc23)-c2[nH]c3ccccc3c2CC(NC(C)=O)C(=O)NCC(=O)NCC(=O)N1 (stereo not drawn)	> 100 µM		> 100 µM	> 100 µM	> 100 µM	> 100 µM	> 100 µM	> 100 µM	> 100 µM		> 100 µM	> 100 µM	> 100 µM	> 100 µM
O=S1(=O)c2ccccc2-c2nccc3ccnc1c23	85.3 µM	28.6 µM	> 100 µM		> 100 µM	> 100 µM	76.1 µM	> 100 µM	91.3 µM		> 100 µM	59 µM	> 100 µM	> 100 µM
CC(CC(C)[C@H]1CCC2[C@H]3C(CC(=O)[C@@]21C)[C@@]1(C)CCC(O)C[C@H]1C[C@@H]3O)C(=O)O (stereo partly drawn)	> 100 µM	> 100 µM	> 100 µM	> 100 µM	> 100 µM	> 100 µM	> 100 µM		> 100 µM	> 100 µM	> 100 µM	> 100 µM		> 100 µM
COc1cccc(N2C(=O)C3c4[nH]c5ccc(C)cc5c4C4CCC(C)CC4C3C2=O)c1 (stereo not drawn)	> 100 µM	> 100 µM	> 100 µM	> 100 µM	> 100 µM	> 100 µM	> 100 µM	> 100 µM	> 100 µM		> 100 µM	> 100 µM	64.9 µM	> 100 µM
Cc1cc(C)nc(NS(=O)(=O)c2ccc(Nc3nnc(/C=C/c4c(O)ccc5ccccc45)c(=O)n3N)cc2)n1	53.8 µM		42 µM	30.9 µM	58.5 µM	92.7 µM		> 100 µM	> 100 µM	55.6 µM		86.3 µM	> 100 µM	58.3 µM
C/C(CC(=O)Nc1ccccc1)=N\NC(N)=S		> 100 µM	> 100 µM		> 100 µM	> 100 µM	> 100 µM	> 100 µM			> 100 µM	> 100 µM		
Cc1ccc(/C=C2\CCCCCC2=O)cc1	> 100 µM	> 100 µM	> 100 µM	> 100 µM	> 100 µM	> 100 µM	> 100 µM	> 100 µM	> 100 µM	> 100 µM	> 100 µM	> 100 µM	> 100 µM	
Cc1ccc(S(=O)(=O)NC(=O)NCC(N)=O)cc1	> 100 µM		> 100 µM	> 100 µM	> 100 µM	> 100 µM	> 100 µM	> 100 µM	> 100 µM		> 100 µM	> 100 µM	> 100 µM	> 100 µM
C=CCN(N=O)C(=O)N(CCCCC(NC(C)=O)C(=O)NCc1ccccc1)Cc1ccccc1 (stereo not drawn)	> 100 µM			> 100 µM	62.4 µM	58.9 µM	> 100 µM	> 100 µM	> 100 µM		> 100 µM	91.7 µM		
O=c1[nH]c2cc3[nH]c(=O)c(=O)[nH]c3cc2[nH]c1=O	> 100 µM	> 100 µM	> 100 µM	> 100 µM	> 100 µM	> 100 µM	> 100 µM	> 100 µM	> 100 µM		> 100 µM	> 100 µM	> 100 µM	> 100 µM
O=c1[nH]cc(COCC(O)CO)c(=O)[nH]1 (stereo not drawn)	> 100 µM		> 100 µM	> 100 µM	> 100 µM	> 100 µM	> 100 µM	> 100 µM	> 100 µM		> 100 µM	> 100 µM		
